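Where inhibition never reached the appropriate level, the endpoint shown equals the highest concentration tested. Otherwise, values were interpolated linearly from a five-concentration, 48-hour dose response in 96-well plates. The concentration for 50% growth inhibition is given as GI50.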 Activity calls are given as the source filed them. No stated cut-off is given here; in the data, active = GI50 up to about 1.1 µM and inactive = higher.
Columns and labels:
Assay in all cases: growth of human tumour cells (NCI), 48 h
A498 = system: A498
EKVX = system: EKVX
SR = system: SR
NCI-H23 = system: NCI-H23
HT-29 = system: HT-29
Malme-3M = system: Malme-3M
SF-295 = system: SF-295
K562 = system: K562
HL-60 = system: HL-60
ACHN = system: ACHN
RXF 393 = system: RXF 393
SNB-75 = system: SNB-75
RPMI-8226 = system: RPMI-8226
UACC-257 = system: UACC-257
UACC-62 = system: UACC-62
OVCAR-8 = system: OVCAR-8
MCF7 = system: MCF7
MDA-MB-231 = system: MDA-MB-231
NCI/ADR-RES = system: NCI/ADR-RES
Hs-578T = system: Hs-578T

Row | SMILES | GI50 (A498) | GI50 (EKVX) | GI50 (SR) | GI50 (NCI-H23) | GI50 (HT-29) | GI50 (Malme-3M) | GI50 (SF-295) | GI50 (K562) | GI50 (HL-60) | GI50 (ACHN) | GI50 (RXF 393) | GI50 (SNB-75) | GI50 (RPMI-8226) | GI50 (UACC-257) | GI50 (UACC-62) | GI50 (OVCAR-8) | GI50 (MCF7) | GI50 (MDA-MB-231) | GI50 (NCI/ADR-RES) | GI50 (Hs-578T)
1 | CC(C)C1COC(c2cccc(C3=N[C@@H](C(C)C)CO3)n2)=N1 (some centres not stated) | > 100 µM (inactive) | > 100 µM (inactive) | > 100 µM (inactive) | > 100 µM (inactive) | > 100 µM (inactive) | > 100 µM (inactive) | > 100 µM (inactive) | > 100 µM (inactive) | > 100 µM (inactive) | > 100 µM (inactive) | > 100 µM (inactive) | > 100 µM (inactive) | > 100 µM (inactive) |  |  |  |  |  |  | 
2 | O=[N+]([O-])c1ccc2c(c1)OCCOCCOc1ccc([N+](=O)[O-])cc1OCCOCCO2 | > 100 µM (inactive) | > 100 µM (inactive) | > 100 µM (inactive) | > 100 µM (inactive) | > 100 µM (inactive) | > 100 µM (inactive) | > 100 µM (inactive) | > 100 µM (inactive) | > 100 µM (inactive) | > 100 µM (inactive) | > 100 µM (inactive) | > 100 µM (inactive) | > 100 µM (inactive) | > 100 µM (inactive) | > 100 µM (inactive) | > 100 µM (inactive) |  |  |  | 
3 | O=C(NCCCCCCNC(=O)c1cccc2ccccc12)c1cccc2ccccc12 | 24.3 µM (inactive) | 20.5 µM (inactive) | > 100 µM (inactive) | 31.5 µM (inactive) | > 100 µM (inactive) | 33.3 µM (inactive) | 1.93 µM (inactive) | > 100 µM (inactive) | > 100 µM (inactive) | 31.4 µM (inactive) | 8.51 µM (inactive) | 3.29 µM (inactive) | > 100 µM (inactive) | 74.3 µM (inactive) | > 100 µM (inactive) | 18.7 µM (inactive) |  |  |  | 
4 | O=c1c2ccccc2n2c(S)nnc2n1-c1ccccc1 | > 100 µM (inactive) | > 100 µM (inactive) | > 100 µM (inactive) | > 100 µM (inactive) | > 100 µM (inactive) | > 100 µM (inactive) | > 100 µM (inactive) | > 100 µM (inactive) | > 100 µM (inactive) | > 100 µM (inactive) | > 100 µM (inactive) | 21.1 µM (inactive) |  | > 100 µM (inactive) | > 100 µM (inactive) | > 100 µM (inactive) | > 100 µM (inactive) | > 100 µM (inactive) | > 100 µM (inactive) | 
5 | N#CC1C(=O)NC23CCCCC2C1c1ccccc1O3 (configuration not stated) | > 100 µM (inactive) | > 100 µM (inactive) |  | > 100 µM (inactive) | > 100 µM (inactive) | > 100 µM (inactive) | > 100 µM (inactive) | > 100 µM (inactive) | > 100 µM (inactive) | > 100 µM (inactive) | > 100 µM (inactive) | > 100 µM (inactive) | > 100 µM (inactive) | > 100 µM (inactive) | > 100 µM (inactive) | > 100 µM (inactive) | > 100 µM (inactive) | > 100 µM (inactive) | > 100 µM (inactive) | 
6 | COc1cc(CNc2nc3cc(C(F)(F)F)ccc3nc2C(=O)O)cc(OC)c1OC | 24.2 µM (inactive) | 20.1 µM (inactive) | 33.3 µM (inactive) | 33.8 µM (inactive) |  | 38.6 µM (inactive) | 20.5 µM (inactive) | 28 µM (inactive) | 0.1 µM (active) | 26.4 µM (inactive) | 23.8 µM (inactive) | 19.9 µM (inactive) |  | 21.5 µM (inactive) | 15.5 µM (inactive) | 34.4 µM (inactive) | 20.1 µM (inactive) |  | 24.4 µM (inactive) | 10.4 µM (inactive)
7 | COc1ccc2c3c(n(Cc4ccccc4)c(=O)c2c1)-c1cc(OC)c(OC)cc1C3C (configuration not stated) | 30.5 µM (inactive) | 10.6 µM (inactive) | 5.12 µM (inactive) | 6.92 µM (inactive) | 25.7 µM (inactive) | 15.6 µM (inactive) | 11.6 µM (inactive) | 9.89 µM (inactive) | > 46.8 µM (inactive) | 11.5 µM (inactive) | 12.3 µM (inactive) | 13.6 µM (inactive) | 14.5 µM (inactive) | 69.8 µM (inactive) | 18.7 µM (inactive) | 19.8 µM (inactive) |  |  |  | 
8 | CN(c1ccccc1)c1cc2ccccc2nn1 | > 100 µM (inactive) | 65.8 µM (inactive) | > 100 µM (inactive) | > 100 µM (inactive) | > 100 µM (inactive) | 87.1 µM (inactive) | 67.9 µM (inactive) | 89.7 µM (inactive) | 30.5 µM (inactive) | 74 µM (inactive) | > 100 µM (inactive) | 64.3 µM (inactive) | 70 µM (inactive) | > 100 µM (inactive) | > 100 µM (inactive) | > 100 µM (inactive) |  |  |  | 
9 | C=C1c2[nH]c3ccccc3c2CC(C(=O)O)N1C(O)c1ccc(S(=O)(=O)O)cc1 (configuration not stated) | > 100 µM (inactive) |  | > 100 µM (inactive) | > 100 µM (inactive) | > 100 µM (inactive) | > 100 µM (inactive) | > 100 µM (inactive) | > 100 µM (inactive) | > 100 µM (inactive) | > 100 µM (inactive) | > 100 µM (inactive) | 65.6 µM (inactive) | > 100 µM (inactive) | > 100 µM (inactive) | > 100 µM (inactive) | > 100 µM (inactive) |  |  |  | 
10 | N#CC(C#N)=C1C(=O)NC(N)=C1C#N | > 100 µM (inactive) | > 100 µM (inactive) |  | > 100 µM (inactive) | > 100 µM (inactive) | > 100 µM (inactive) | > 100 µM (inactive) | > 100 µM (inactive) | > 100 µM (inactive) | > 100 µM (inactive) | > 100 µM (inactive) |  | > 100 µM (inactive) | > 100 µM (inactive) | > 100 µM (inactive) | > 100 µM (inactive) | > 100 µM (inactive) | > 100 µM (inactive) | > 100 µM (inactive) | > 100 µM (inactive)
11 | Cc1cc(Br)c(O)c(-c2cscn2)c1 | 23.7 µM (inactive) | 33.1 µM (inactive) |  | 14.4 µM (inactive) | 27.3 µM (inactive) | 21.8 µM (inactive) | 23.2 µM (inactive) | 7.64 µM (inactive) | 3.66 µM (inactive) | 14 µM (inactive) |  |  | 4.81 µM (inactive) | > 10 µM (inactive) | 12.7 µM (inactive) | 10.9 µM (inactive) |  |  | 24 µM (inactive) | 19.3 µM (inactive)
12 | COc1cc2c(cc1OC)C(=O)/C(=C/c1cc(C)cc(C)c1)C2 | 0.131 µM (active) | 1.29 µM (inactive) |  | 0.313 µM (active) | 0.0385 µM (active) |  | < 0.0301 µM (active) | 0.0232 µM (active) | < 0.0244 µM (active) | 12.9 µM (inactive) | 0.0736 µM (active) | 0.211 µM (active) | 0.129 µM (active) | 0.561 µM (active) | 0.0443 µM (active) | 0.175 µM (active) | 0.385 µM (active) | 0.143 µM (active) | 0.065 µM (active) | 0.538 µM (active)
13 | C=C1CC/C=C(/C(=O)O)CC[C@H]2[C@@H]1CC2(C)C | > 100 µM (inactive) | > 100 µM (inactive) |  | > 100 µM (inactive) | > 100 µM (inactive) | > 100 µM (inactive) | > 100 µM (inactive) | > 100 µM (inactive) | > 100 µM (inactive) | > 100 µM (inactive) | > 100 µM (inactive) |  | > 100 µM (inactive) | > 100 µM (inactive) | > 100 µM (inactive) |  | > 100 µM (inactive) | > 100 µM (inactive) |  | > 100 µM (inactive)
14 | Cc1c(C(Cc2ccccc2N(C)C(=O)/C=C\C(=O)O)c2c[nH]c3ccccc23)c2ccccc2n1C (configuration not stated) | 17.9 µM (inactive) | 16.3 µM (inactive) | 16.9 µM (inactive) | 16.8 µM (inactive) | 15.5 µM (inactive) | 6.14 µM (inactive) | 14.5 µM (inactive) | 18.7 µM (inactive) | 4.66 µM (inactive) | 17.1 µM (inactive) | 14.2 µM (inactive) | 16.5 µM (inactive) |  | 15.7 µM (inactive) | 17.2 µM (inactive) | 13.2 µM (inactive) |  |  |  | 
15 | Cc1ccc2c(c1)C(=C(C#N)C#N)CCCS2(=O)=O | > 100 µM (inactive) | > 100 µM (inactive) | > 100 µM (inactive) | > 100 µM (inactive) | > 100 µM (inactive) |  | > 100 µM (inactive) | > 100 µM (inactive) | > 100 µM (inactive) | > 100 µM (inactive) | > 100 µM (inactive) | > 100 µM (inactive) | > 100 µM (inactive) | > 100 µM (inactive) | > 100 µM (inactive) | > 100 µM (inactive) |  | > 100 µM (inactive) | > 100 µM (inactive) | > 100 µM (inactive)
16 | OC1COC2CC(Nc3ccccn3)OC12 (configuration not stated) |  | > 100 µM (inactive) | > 100 µM (inactive) | > 100 µM (inactive) | > 100 µM (inactive) | > 100 µM (inactive) | > 100 µM (inactive) | > 100 µM (inactive) |  | > 100 µM (inactive) | > 100 µM (inactive) | > 100 µM (inactive) | > 100 µM (inactive) | > 100 µM (inactive) | > 100 µM (inactive) | > 100 µM (inactive) |  | > 100 µM (inactive) | 56.9 µM (inactive) | > 100 µM (inactive)

Source: ChEMBL document CHEMBL1201862, “PubChem BioAssay data set” (2004)
